According to patent US9532519B2, “Plant growth regulator and use thereof” (Japan Science and Technology Agency, priority 2006, dated 2017):

Key:
Arabidopsis [1] = assay: Influence of oxidized glutathione on growth of Arabidopsis; assay type: in vivo; conditions: in vivo
Description: Specifically, the plants were cultivated with two or three plants in one pod of approximately 65 in width, 65 in depth, and 50 in height, and an appropriate amount of a treatment solution was supplied. The effect of the treatment was evaluated with respect to the number of rosette leaves, the speed of a growing flower stalk, the number of flowers, and the number of seeds.

Arabidopsis [2] = assay: Effect of concentration of oxidized glutathione on growth of Arabidopsis; assay type: in vivo
Description: Specifically, soil filled in a pod of approximately 65 in width, 65 in depth, and 50 in height was immersed in 0 mM-, 0.01 mM-, 0.2 mM-, 1 mM-, 2 mM-, and 5 mM-GSSG solutions. Seeds of Arabidopsis were sown in such a manner that approximately three seeds existed in each pod, and the seeds were observed chronologically 3 weeks after the sowing.

rice (Akita 63) = assay: Rice hydroponics, GSSG in additional fertilization, number of ears; assay type: in vivo; conditions: GSSG 0.2 gN per test location (0.1 m2) in additional fertilization
Text: In particular, the method is effective for a plant such as gramineae whose yield is greatly dependent on tillers.

Arabidopsis [3] = conditions: in vivo
[4] = system: Rose (breed; Patiohit alicante); assay: Influence of oxidized glutathione on growth of rose (Patiohit alicante); assay type: in vivo; conditions: 50 mL of 0.5 mM-GSSG two times a week for four months, then pruned
Description: Rose (breed; Patiohit alicante) was fertilized with 50 mL of 0.5 mM-GSSG solution two times a week for four months and then pruned completely and cultivated.

Tsai-hsin = assay: Influence of oxidized glutathione on growth of tsai-hsin, agricultural field; assay type: in vivo; conditions: 0.5 mM- or 5 mM-GSSG sprayed to leaves two times a week, 1 L per zone (3 m^2)
Text: Tsai-hsin was cultivated for two weeks, and then transferred to an agricultural field and grown with or without the treatment with GSSG. Tsai-hsin was fertilized with a nitrogen fertilizer that was KUMIAI RIN […] S604 in a ratio of 20 kgN per 10 are, and was additionally fertilized with 5 kgN 3 weeks later.

[5] = system: Soybean (breed: Tsurumusume) and soybean (breed; Toyomusume); assay: Influence of oxidized glutathione on growth and yield of seeds of soybean, agricultural field; assay type: in vivo; conditions: 0.5 mM-GSSG, 50 mL per individual two times a week at base of stem; each breed
Description: The soybean was fertilized with a nitrogen fertilizer that was KUMIAI RIN […] S604 in a ratio of 20 kgN per 10 are, and was additionally fertilized with 5 kgN 3 weeks later.
Further, in a GSSG-treated management zone, a 0.5 mM-GSSG solution was given to the base of a stem (see the arrow in FIG. 21) in the amount of 50 mL per one individual two times a week in such a manner that the solution flowed along the stem.
In a case where it was likely to rain, the GSSG solution was supplied to the plant after the rain. Similarly, in a case of watering, the GSSG solution was supplied to the plant after the watering. When the harvest time of the plant of the control (i.e. normal nitrogen management zone) was coming, supply of the GSSG solution to the plant in the GSSG-treated management zone was stopped.
The seed weight, the amount of biomass, and the harvest index of the plant thus obtained in the GSSG-treated management zone, each relative to that of the plant in the normal nitrogen management zone, were measured.

[6] = system: Sweet corn (Canberra 90, TAKII & CO., LTD.); assay: Effect 1 of oxidized glutathione on productivity of corn; assay type: in vivo; conditions: 200 mL of 0.5 mM-GSSG two times a week for 12 weeks at root
Description: Sweet corn (Canberra 90, TAKII & CO., LTD.) was sown, and then transferred to a hydroponics pot ( 1/2000 are) filled with a culture soil (6 L of vermiculite as the lower layer, 3 L of The Kureha Ikubyou Baido soil as the middle layer, and 3 L of vermiculite as the upper layer) two weeks later and additionally fertilized with 3 g of KUMIAI RIN […] S604 four weeks later and six weeks later. Further, the GSSG-treated plant was given 200 mL of 0.5 mM-GSSG two times a week for 12 weeks after germination at its root.

Sweet corn [7] = assay: Effect 3 of oxidized glutathione on productivity of corn (foliar spray); assay type: in vivo; conditions: GSSG sprayed to a stem and leaves four times in two weeks after six weeks from the sowing
Description: Sweet corn was cultivated under the same conditions as those of <15.
The amount of fruits and the amount of biomass of ground parts of the plant thus obtained were measured with respect to each plant and harvest index was calculated.

Sweet corn [8] = conditions: in vivo
[9] = system: Rose saplings (breed; Purple rose); assay: Effect 1 on promoting growth of sprout and floral bud of rose (Purple rose); assay type: in vivo; conditions: 50 mL of 0.5 mM-GSSG two times a week; one month from the fertilization
Description: Rose saplings (breed; Purple rose) were purchased at a hardware store and cultivated in pods for rice hydroponics. The rose saplings were fertilized with 50 mL of a 0.5 mM-GSSG solution in the form of a liquid fertilizer two times a week.

[10] = system: Roses (breed; Patiohit alicante); assay: Effect 1 on promotion of induction of floral bud of rose; assay type: in vivo; conditions: 50 mL of 0.5 mM-GSSG two times a week; approximately three and a half months
Description: Roses (breed; Patiohit alicante) were purchased at a hardware store and fertilized with 50 mL of a 0.5 mM-GSSG solution in the form of a liquid fertilizer two times a week. Approximately three and a half months later, plants in a GSSG-treated zone and plants in a non-GSSG-treated zone were compared with each other.

[11] = system: transformants of Arabidopsis to which a gene encoding gFBA was introduced and the wild-type Arabidopsis (Columbia; Col); conditions: in vivo
[12] = system: transformants of Arabidopsis to which a gene encoding gFBA was introduced and wild-type Arabidopsis (Columbia; Col); conditions: in vivo
[13] = system: transformants of Arabidopsis to which the gFBA gene was introduced and wild-type Arabidopsis (Columbia; Col); assay: Influence 3 of oxidized glutathione on gFBA transformant Arabidopsis (GSSG only, 0 mM to 5 mM); assay type: in vivo; conditions: only GSSG as liquid fertilizer
Text: This tendency was more clearly observed in the transformants of Arabidopsis to which the gFBA gene was introduced.

[14] = soil immersed in 0-5 mM GSSG solutions

For oxidized glutathione [GSSG], the “effective number of seeds per plant relative to plants cultivated with only water or 5 mM H2O2” value (Arabidopsis [1]) was “approximately three or four times as large”, the “growth of leaves (size and shape)” value (Arabidopsis [1]) was “grew larger and rounder” and the “number of flowers and area of leaves” value (Arabidopsis [1]) was “greatly larger”. For the same substance, the “plant length, stem and leaves” value (Arabidopsis [1]) was “shorter plant length, a thicker stem, and larger leaves”, the “state of plant (life of plant)” value (Arabidopsis [1]) was “showed much amount of green leaves” and the “difference from Arabidopsis cultivated with water (0 mM)” value (Arabidopsis [2]; 0.01 mM GSSG) was “almost no difference”. For the same substance, the “concentration at which making a leaf rounder and lengthening the life of a plant were clearly observed” value (Arabidopsis [2]; [14]) was 0.2 to 2 mM, the “concentration at which making a stem thicker was observed” value (Arabidopsis [2]; [14]) was 1 to 2 mM and the “number of ears relative to plant cultivated with only water” value (rice (Akita 63)) was “approximately 1.4 times”. For the same substance, the “seed weight per one pod vs not treated” value (Arabidopsis [3]) was “significantly increased the seed weight”, the “growth of new floral buds vs not treated” value [4] was “significant promotion of growth of new floral buds” and the “amount of growth vs normal nitrogen management zone” value (Tsai-hsin) was “significant increase in the amount of growth”. The “amount of biomass vs normal nitrogen management zone” value [5] was “higher”, the “harvest index vs normal nitrogen management zone” value [5] was “higher” and the “seed weight vs normal nitrogen management zone” value [5] was “higher”. The “amount of biomass of the portions other than the fruits vs not treated” value [6] was “no great difference”, the “amounts of biomass of the fruits and ground parts” value [6] was “significantly high” and the “formation of floral buds vs not treated” value [6] was “promotion of formation of floral buds”. For the same substance, the “harvest index vs not treated” value [6] was “significantly high harvest index”, the “number of edible seeds vs not treated” value [6] was “more number of edible seeds” and the “size of fruits vs not treated” value [6] was “larger”. For the same substance, the “size of seeds vs not treated” value [6] was “larger”, the “amount of fruits, amount of biomass of ground parts and harvest index of each plant” value (Sweet corn [7]) was “increased the amount of fruits, the amount of biomass of ground parts, and the harvest index” and the “amount of biomass of fruits per plant vs not treated” value (Sweet corn [8]) was “higher amount of biomass of fruits”. The “amount of biomass of ground parts vs not treated” value (Sweet corn [8]) was “substantially the same or lower amount of biomass of ground parts”, the “amount of biomass of the portions other than fruits vs not treated” value (Sweet corn [8]) was “lower amount of biomass of the portions other than fruits” and the “amounts of biomass of the portions other than fruits and ground parts vs not treated” value (Sweet corn [8]) was “greatly lower amounts of biomass of the portions other than fruits and ground parts”. The “harvest index vs not treated” value (Sweet corn [8]) was “higher harvest index”, the “whole amount of biomass per area vs not treated” value (Sweet corn [8]) was “did not exhibit a significant difference” and the “growth of sprout vs not treated” value [9] was “promoted growth of sprout”. The “number of bloomed flowers vs not treated” value [10] was “greatly larger number of bloomed flowers”, the “harvest index, whole amount of biomass and seed weight” value [11] was “increased any of the harvest index, the whole amount of biomass, and the seed weight” and the “ability to increase harvest index and crop yields, oxidized vs reduced glutathione” value [12] was “higher ability to increase the harvest index and to significantly increase crop yields than reduced glutathione”. The “effects of increasing seed weight and harvest index compared with ammonium nitrate” value [13] was “greatly larger than the maximum effects yielded by fertilization with nitrogen resulting from ammonium nitrate”, the “concentration of GSSG at which the effect on harvest index was saturated” value ([13]; 0 mM to 5 mM) was “approximately 2 mM” and the “seed weight as function of GSSG concentration” value ([13]; 0 mM to 5 mM) was “increased as concentration of GSSG increased, and the effect was not saturated at the tested concentration”.
